Measured values as given in ChEMBL document CHEMBL4270648, “Molecular design, synthesis and biological evaluation of cage compound-based inhibitors of hepatitis C virus p7 ion channels” (Eur J Med Chem, 2018).

Assays:
[1] = Selectivity index, ratio of CC50 for calf heart cells to IC50 for BVDV VK-1 infected in calf heart cells; assay type: toxicity, cell-based; conditions: cattle, read-out: Ratio CC50/IC50
[2] = Cytotoxicity against calf heart cells assessed as reduction in cell viability by colorimetric method; assay type: cell-based, Bos taurus; conditions: cattle
[3] = Inhibition of p7 ion channel in BVDV VK-1 infected in calf heart cells assessed as reduction in viral growth by colorimetric method; assay type: cell-based, Bovine viral diarrhea virus 1; conditions: Bovine viral diarrhea virus isolates and strains

SMILES	selectivity ratio [1]	CC50 [2]	IC50 [3]
CC1=NC(C)(C23CC4CC(CC(C4)C2)C3)CO1 (centres undefined)	5	168 µM	33.4 µM
c1cc(OC23CC4CC(CC(C4)C2)C3)ccn1	7.8	290 µM	37.4 µM
O=S1(=O)OC23CC4CC(CC(C4)C2)C[C@H]3[C@@H]1CN1CCCCC1	> 1.8	> 295 µM	163 µM
O=C(C[n+]1ccccc1)C12CC3CC(CC(C3)C1)C2	> 3.9	> 297 µM	75.9 µM
c1ccc2nc3c(nc2c1)C1CC2CC(C1)CC3C2	> 50.8	> 400 µM	7.87 µM
O=C1CCC(C23CC4CC(CC(C4)C2)C3)=NN1c1ccccc1	> 450	235 µM	< 0.52 µM
NCC12CC3CC(C1)CC(CC(=O)O)(C3)C2	> 1	> 385 µM	382 µM
COP(=O)(OC)[C@@H](C(=O)C12CC3CC(CC(C3)C1)C2)[C@H](C[N+](=O)[O-])c1ccccc1 (relative stereo)	> 21.7	> 230 µM	10.6 µM
O=c1ccc(C23CC4CC(CC(C4)C2)C3)n[nH]1	> 21.8	> 434 µM	20 µM
CC(O)(CNC(=O)C(F)(F)F)C12CC3CC(CC(C3)C1)C2 (centres undefined)	3.4	259 µM	75.4 µM
CC(=C(C#N)C#N)C12CC3CC(CC(C3)C1)C2	4.1	106 µM	25.9 µM
C[C@@H]1N[C@H]1C12CC3CC(CC(C3)C1)C2	1.4	105 µM	76.7 µM
O=C(O)CC12CC3CC(O)(C1)CC(CC(=O)O)(C3)C2	> 3.2	> 373 µM	116 µM
CC(=O)NC(C)C12CC3CC(CC(C(=O)O)(C3)C1)C2 (centres undefined)	> 13.1	> 377 µM	28.9 µM
Cc1cccc[n+]1CC(=O)C12CC3CC(CC(C3)C1)C2	> 3.6	> 285 µM	78.8 µM
O=c1ccn(C23CC4CC(CC(C4)C2)C3)cc1	4.5	158 µM	35.3 µM
Cc1cccc[n+]1CCC12CC3CC(CC(C3)C1)C2	32	297 µM	9.3 µM
C1CN(C[C@H]2O[C@@H]2C23CC4CC(CC(C4)C2)C3)CCO1 (relative stereo)	1.7	271 µM	164 µM
O=c1[nH]cc(C23CC4CC(CC(C4)C2)C3)cc1C12CC3CC(CC(C3)C1)C2	> 107	> 275 µM	2.56 µM
O=C([C@@H]([C@H](C[N+](=O)[O-])c1ccccc1)S(=O)(=O)c1ccccc1)C12CC3CC(CC(C3)C1)C2 (relative stereo)	> 114	> 215 µM	1.89 µM
OC(CN1CCCc2ccccc21)C12CC3CC(CC(C3)C1)C2 (centres undefined)	> 1.5	> 321 µM	213 µM
Oc1noc2c1C1CC3CC(CC2C3)C1	> 82	> 487 µM	5.94 µM
CSc1ncn(C2(c3ccccc3O)C3CC4CC(C3)CC2C4)n1 (centres undefined)	5.2	119 µM	22.9 µM
CC1(c2ccccc2)CCN(CCC23CC4CC(CC(C4)C2)C3)CC1	32.1	90.7 µM	2.82 µM
CN(C)c1cc[n+](C23CC4CC(CC(C4)C2)C3)cc1	8.1	199 µM	24.4 µM
C1C2CC3CC1CC(C2)c1nc2c(nc13)C1CC3CC(C1)CC2C3	> 3.1	> 312 µM	102 µM
CC1=CCCN(CC(O)C23CC4CC(CC(C4)C2)C3)C1 (centres undefined)	7.5	190 µM	25.2 µM

SMILES	selectivity ratio [1]	CC50 [2]	IC50 [3]
c1ccc2c(c1)Oc1ncnn1C21C2CC3CC(C2)CC1C3 (centres undefined)	> 54.7	> 341 µM	6.23 µM
c1ccc2c[n+](CCC34CC5CC(CC(C5)C3)C4)ccc2c1	1.5	83 µM	56.6 µM
C1CN[C@H]2C3CC4CC(CC(C4)[C@H]2N1)C3	> 211	> 358 µM	1.69 µM
CCN(CC)C[C@H]1O[C@@H]1C12CC3CC(CC(C3)C1)C2 (relative stereo)	2.3	90.4 µM	39.5 µM
N#CC(C#N)=C(/C=C/N1CCOCC1)C12CC3CC(CC(C3)C1)C2	> 3.6	> 309 µM	86.4 µM
O=c1[nH][nH]c2c1C1CC3CC(CC2C3)C1	> 12.2	> 485 µM	39.7 µM
O=S1(=O)OC23CC4CC(CC(C4)C2)C[C@H]3[C@@H]1CN1CCOCC1	> 4.7	> 293 µM	62.1 µM
O/N=C1\C(=N\O)C2CC3CC(CC1C3)C2	142	480 µM	3.38 µM
C[C@H](O)[C@H](N)C12CC3CC(CC(C3)C1)C2	> 4	> 407 µM	103 µM
CC1(c2ccccc2)CCCN(CCC23CC4CC(CC(C4)C2)C3)C1 (centres undefined)	28.7	86.7 µM	3.02 µM
O=C(NCc1ccccc1)C1C(=O)C2CC3CC(C2)CC1C3 (centres undefined)	> 5.1	> 336 µM	66.6 µM
CCC1CC2CC3CC(C2)CC1(O)C3 (centres undefined)	95.2	403 µM	4.24 µM
C=C(COc1ccccc1C(=O)OCC)C12CC3CC(CC(C3)C1)C2	7.8	35.8 µM	4.57 µM
CC12CC3(N)CC(CC(=O)O)(C1)CC(CC(=O)O)(C2)C3	> 2.7	> 315 µM	118 µM
O=C1/C(=N/O)C2CC3CC(CC1C3)C2	> 2.9	> 518 µM	177 µM
O=C(C[n+]1cccc2ccccc21)C12CC3CC(CC(C3)C1)C2	8.7	133 µM	15.2 µM
CC(=O)NCC12CC3CC(C1)CC(CC(=O)O)(C3)C2	> 2.1	> 377 µM	181 µM
O=S1(=O)OC23CC4CC(CC(C4)C2)C[C@H]3[C@@H]1CNCc1ccccc1	1.7	96 µM	56.5 µM
c1ccc2[nH]cc(C34CC5CC(CC(C5)C3)C4)cc[nH]c2c1	6.3	128 µM	20.3 µM
CCN(CC)C[C@H](Cl)[C@H](O)C12CC3CC(CC(C3)C1)C2 (relative stereo)	20.5	274 µM	13.4 µM
O=C(O)CC12CC3(O)CC(CC(=O)O)(C1)CC(C(=O)O)(C3)C2	> 1.1	> 320 µM	282 µM
Oc1ccccc1C1(n2cncn2)C2CC3CC(C2)CC1C3 (centres undefined)	> 56.5	> 339 µM	5.99 µM
O/N=C1/CC2CC3CC(C2)CC1C3	20.6	148 µM	7.21 µM
CN(C)C1=NC2(c3ccccc3O1)C1CC3CC(C1)CC2C3 (centres undefined)	1	72.1 µM	70.9 µM
O=c1cc[nH]cc1C12CC3CC(CC(C3)C1)C2	> 33.9	> 436 µM	12.9 µM
O=C(O)C(Br)C12CC3CC(CC(O)(C3)C1)C2 (centres undefined)	> 1.8	> 346 µM	193 µM
